Laboratory results: US11684675B2, “Dimeric collagen hybridizing peptides and methods of using” (University of Utah Research Foundation, priority 2015, dated 2023)

Columns and labels:
[1] = test system: crosslinked gelatin films; assay: Binding of CF-labelled CHPs to crosslinked gelatin films at 37° C. with and without preheating; design: species or system porcine; conditions: 20 μM, 37° C. overnight, PBS wash 20 h, FIG. 6C
Protocol: FIGS. 3A and 3B show the affinity of CHPs to gelatin films as monitored by fluorescence of conjugated CF fluorophore (492 ex, 533 em). (A) Fluorescence of CHPs bound to crosslinked gelatin after incubation at 37° C. overnight with no workup. (B) Fluorescence of CHPs remaining in crosslinked gelatin after incubation at 37° C. overnight without preheating, followed by washing with 1×PBS at 37° C. (20 h).
(A) Fraction of peptide remaining in a crosslinked gelatin film after 17 h at 25° C. (10 total washes). Values are normalized to fluorescence remaining in wells after 6 washes at 4° C. (>95% removal of CHPs 9r, 6r, and 5r). All washes performed in 1×PBS. (B) CHPs (15 μM) premixed into 10% porcine gelatin and preheated to 80° C. (10 min) before being added to a 96 well plate. Excess CHP-gelatin mixture was removed, then the premix was incubated at 4° C. for 2 hours. Wells were washed at 4° C., 5 times (>95% removal of CHPs 9r, 6r, and 5r). Wells were then washed for 2 hours (6 washes total) at 25° C. to monitor CHP remaining in the well. (C) Fluorescence of CHPs remaining in crosslinked gelatin after incubation at 37° C. overnight without preheating, followed by washing with 1×PBS at 37° C. (20 h). (D) Fluorescence of CHPs remaining in crosslinked gelatin after incubation at 37° C. overnight (80° C. preheating, 10 min), followed by washing with 1×PBS at 37° C. (20 h).
Dimeric CHPs were assessed for their ability to bind to collagen strands in crosslinked gelatin films. CHP solutions (20 μM in PBS) were added directly to the crosslinked gelatin films. For heated experiments, CHPs were preheated to 80° C. for 10 minutes before addition. Peptides were allowed to fully equilibrate with the gel at 37° C. overnight before being exposed to repeated washes (4×, PBS) at 37° C. to fully remove any non-specifically bound peptide and to determine binding level at body temperature. To measure retention, peptides were bound as previously described, but were subsequently washed with PBS 37° C. (5×1 h, 1×12 h) to measure retention within the gelatin films. […] Additionally, after a period of 20 hours, higher level of the dimeric CHP remained in the gelatin compared to the monomeric CHP.
A major limitation of the use of CHP in vivo, is the requirement of the triple helix to be fully disassembled before being injected. […] For this test, peptide solutions were allowed to warm to room temperature before being added (50 μL, 20 μM) to previously prepared crosslinked gelatin films. Solutions were then incubated at 37° C. overnight before removing the solution. Wells were washed at 37° C. with PBS (20 h) to determine binding. Preheated samples were prepared and incubated in the same way, but with preheating (80° C., 10 min) before being added to the crosslinked gelatin wells.

[2] = Triple helix melting point (Tm) by circular dichroism at 225 nm; assay type: physicochemical; conditions: for Tm (° C.): triple helix melting
Protocol: FIGS. 5A, 5B, 5C, and 5D show the thermal denaturation of fully assembled CHPs and subsequent cooling to initial temperature. Samples were heated at 1° C./min from their initial temperature final temperature of 90° C. Sample was then cooled at 1° C./min to the starting temperature. (A) Thermal denaturation and partial reassembly of CHP CF-6d (150 μM) monitored at 225 nm. Sample was measured from 4° C. to 90° C. (B) Thermal denaturation and partial reassembly of CHP […] (75 μM, corresponding to 150 μM strand concentration) monitored at 225 nm. Sample was measured from 4° C. to 90° C. (C) Thermal denaturation and partial reassembly of CHP CF-9 (150 μM) monitored at 225 nm. Sample was measured from 10° C. to 90° C. (D) Thermal denaturation and partial reassembly of CHP CF-9d (75 μM, corresponding to 150 μM strand concentration) monitored at 225 nm. Sample was measured from 10° C. to 90° C.
FIGS. 11A and 11B show the First Derivative of mean residue ellipticity (MRE) at 225 nm in CD. […] There is no significant change in melting point between the monomeric and dimeric forms of the same peptide.
Circular Dichroism: Circular Dichroism (CD) was measured for all peptides at 225 nm. Melting curves were taken on peptides between 10 and 80° C. at a heating rate of 0.5° C./min, with pauses at each 1° C. Refolding experiments were performed after peptide solutions were incubated at 4° C. for at least 12 hours. Concentrations were normalized to strand concentration.

[(GPO)6G3)2KG [6d]
binding to gelatin wells at 37° C. without preheating [1]: bind more significantly than the GPO9 monomer without preheating
melting point ([2]; Example 3): 38 °C
Tm (° C.) ([2]; Table 1): 38 (SEQ ID NO: 58) ° C.
Tm (° C.) ([2]; Table 2): 38 (SEQ ID NO: 58) ° C.
